Measurements reported in ChEMBL document CHEMBL4765237, “Structural optimization and structure-activity relationship studies of N-phenyl-7,8-dihydro-6H-pyrimido[5,4-b][1,4]oxazin-4-amine derivatives as a new class of inhibitors of RET and its drug resistance mutants” (Eur J Med Chem, 2018).
Activity calls are given as the source filed them. No cut-off for these calls is given here.

Assays:
BaF3 [1] = test: Growth inhibition of mouse BaF3 cells harboring RET M918T mutant incubated for 3 days by MTT assay; assay type: functional; settings: BaF3, 72 h, time 3 day
[2] = Growth inhibition of […] NIH3T3 cells harboring RET C634Y mutant incubated for 3 days by MTT assay; assay type: functional; settings: NIH3T3, 72 h; time 3 day
[3] = Growth inhibition of human TT cells incubated for 10 days by MTT assay; assay type: functional; settings: 240 h, time 10 day
BaF3 [4] = test: Growth inhibition of mouse BaF3 cells over expressing wild type RET incubated for 3 days by MTT assay; assay type: functional; settings: BaF3, 72 h, time 3 day
BaF3 [5] = test: Growth inhibition of mouse BaF3 cells harboring RET V804M mutant incubated for 3 days by MTT assay; assay type: functional; settings: BaF3, 72 h, time 3 day
[6] = biological target: Proto-oncogene tyrosine-protein kinase receptor Ret (Homo sapiens, UniProt P07949, V804M)
Sequence of Proto-oncogene tyrosine-protein kinase receptor Ret (Homo sapiens, UniProt P07949, V804M) (P07949 29-1114 V804M limits assumed): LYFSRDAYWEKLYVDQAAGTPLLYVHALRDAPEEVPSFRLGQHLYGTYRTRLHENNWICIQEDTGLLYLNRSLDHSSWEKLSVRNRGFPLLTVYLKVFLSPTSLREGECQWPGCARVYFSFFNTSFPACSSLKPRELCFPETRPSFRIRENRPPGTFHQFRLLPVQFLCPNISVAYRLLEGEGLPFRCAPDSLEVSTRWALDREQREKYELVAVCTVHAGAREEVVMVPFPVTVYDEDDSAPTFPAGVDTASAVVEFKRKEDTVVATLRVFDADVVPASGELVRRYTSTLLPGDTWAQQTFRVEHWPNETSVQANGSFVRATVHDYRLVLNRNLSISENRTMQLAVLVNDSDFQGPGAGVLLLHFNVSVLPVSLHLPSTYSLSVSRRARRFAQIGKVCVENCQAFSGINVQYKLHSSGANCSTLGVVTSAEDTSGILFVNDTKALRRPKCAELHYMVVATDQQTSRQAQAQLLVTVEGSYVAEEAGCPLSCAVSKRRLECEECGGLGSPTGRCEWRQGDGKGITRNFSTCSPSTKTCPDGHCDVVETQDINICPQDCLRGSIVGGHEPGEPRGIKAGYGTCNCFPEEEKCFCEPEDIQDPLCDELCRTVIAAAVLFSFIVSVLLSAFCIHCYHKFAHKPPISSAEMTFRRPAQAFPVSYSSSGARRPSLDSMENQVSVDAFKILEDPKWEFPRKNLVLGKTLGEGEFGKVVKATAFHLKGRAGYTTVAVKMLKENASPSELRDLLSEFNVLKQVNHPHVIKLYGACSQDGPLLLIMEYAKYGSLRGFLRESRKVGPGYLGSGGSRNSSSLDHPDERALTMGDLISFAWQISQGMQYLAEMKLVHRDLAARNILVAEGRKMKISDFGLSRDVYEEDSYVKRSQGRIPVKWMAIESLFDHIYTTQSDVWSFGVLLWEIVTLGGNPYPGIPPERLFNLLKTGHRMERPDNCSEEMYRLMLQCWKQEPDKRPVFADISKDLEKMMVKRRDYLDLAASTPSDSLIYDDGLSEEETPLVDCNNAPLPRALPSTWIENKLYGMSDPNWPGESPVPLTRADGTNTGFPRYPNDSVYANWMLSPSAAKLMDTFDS

BaF3 [7] = assay type: functional; settings: Mus musculus, BaF3, 72 h; time 3 day
[8] = biological target: Proto-oncogene tyrosine-protein kinase receptor Ret (Homo sapiens, UniProt P07949)
Sequence of Proto-oncogene tyrosine-protein kinase receptor Ret (Homo sapiens, UniProt P07949) (P07949 whole entry): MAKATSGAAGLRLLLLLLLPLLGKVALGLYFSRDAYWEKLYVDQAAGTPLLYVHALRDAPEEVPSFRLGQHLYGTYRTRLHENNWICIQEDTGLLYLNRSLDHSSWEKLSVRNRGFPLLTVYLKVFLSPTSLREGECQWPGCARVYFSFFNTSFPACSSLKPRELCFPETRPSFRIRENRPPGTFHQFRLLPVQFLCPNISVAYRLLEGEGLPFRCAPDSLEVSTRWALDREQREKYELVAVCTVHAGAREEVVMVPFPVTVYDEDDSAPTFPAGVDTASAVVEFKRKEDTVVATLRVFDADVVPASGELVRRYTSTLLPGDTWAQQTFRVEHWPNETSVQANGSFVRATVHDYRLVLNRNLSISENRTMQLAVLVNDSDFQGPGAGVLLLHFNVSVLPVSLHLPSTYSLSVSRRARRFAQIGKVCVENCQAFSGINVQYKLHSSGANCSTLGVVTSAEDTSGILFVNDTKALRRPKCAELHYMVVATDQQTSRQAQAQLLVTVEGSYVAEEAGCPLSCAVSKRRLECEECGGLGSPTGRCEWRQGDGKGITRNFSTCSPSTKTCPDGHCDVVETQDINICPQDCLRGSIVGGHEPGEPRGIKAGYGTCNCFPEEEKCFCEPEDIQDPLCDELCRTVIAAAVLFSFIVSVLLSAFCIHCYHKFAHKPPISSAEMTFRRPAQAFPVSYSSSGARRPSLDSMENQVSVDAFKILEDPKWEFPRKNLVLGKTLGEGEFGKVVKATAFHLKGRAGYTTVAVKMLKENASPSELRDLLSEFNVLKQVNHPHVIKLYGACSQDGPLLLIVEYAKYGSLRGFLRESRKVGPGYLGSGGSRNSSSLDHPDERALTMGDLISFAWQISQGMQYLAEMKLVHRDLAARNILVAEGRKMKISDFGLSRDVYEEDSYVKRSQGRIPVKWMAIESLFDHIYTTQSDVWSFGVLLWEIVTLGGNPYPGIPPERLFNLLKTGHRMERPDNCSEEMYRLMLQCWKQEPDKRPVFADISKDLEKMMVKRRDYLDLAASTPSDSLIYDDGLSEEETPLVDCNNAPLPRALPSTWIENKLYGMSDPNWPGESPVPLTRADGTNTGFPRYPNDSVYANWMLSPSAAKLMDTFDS

BaF3 [9] = test: Growth inhibition of mouse BaF3 cells incubated for 3 days by MTT assay; assay type: functional; settings: BaF3, 72 h, time 3 day
[10] = Growth inhibition of […] NIH3T3 cells incubated for 3 days by MTT assay; assay type: functional; settings: NIH3T3, 72 h; time 3 day
[11] = Toxicity in NOD-SCID mouse xenografted with […] cells harboring RET C634Y mutant assessed as reduction in body weight at 30 mg/kg, po administered for 18 days and measured on day 18; assay type: organism-based; settings: in vivo, 432 h, time 18 day
NIH3T3 = settings: Homo sapiens, dose 30.0 mg/kg, time 18.0 day

| Structure (SMILES) | GI50 (BaF3 [1]) [µM] | GI50 [2] [µM] | GI50 [3] [µM] | GI50 (BaF3 [4]) [µM] | GI50 (BaF3 [5]) [µM] | IC50 [6] [µM] | GI50 (BaF3 [7]) [µM] | IC50 [8] [µM] | GI50 (BaF3 [9]) [µM] | GI50 [10] [µM] | Activity [11] | TGI (NIH3T3) |
| --- | --- | --- | --- | --- | --- | --- | --- | --- | --- | --- | --- | --- |
| O=C(Nc1ccc(Nc2ncnc3c2OCCN3)cc1)Nc1cccs1 | > 10 | > 10 | > 10 | > 10 | > 10 | 8.64 | > 10 | > 10 | > 10 | > 10 |  |  |
| CC(C)N1CCOc2c(Nc3ccc(NC(=O)Nc4cc(C(C)(C)C)on4)cc3)ncnc21 | 8.61 | 3.12 | 5.1 | 5.16 | 8.98 | 5.37 | 7.98 | 8.77 | > 10 | > 10 |  |  |
| COc1cc(NC(=O)Nc2cc(C(C)(C)C)on2)ccc1Nc1ncnc2c1OCCN2 | > 10 | 2.7 | 3.03 | 4.7 | > 10 | 0.033 | > 10 | 0.022 | > 10 | > 10 |  |  |
| O=C(Nc1ccc(Cl)cc1)Nc1ccc(Nc2ncnc3c2OCCN3)cc1 | > 10 | > 10 | > 10 | > 10 | > 10 | 2.28 | > 10 | 3.07 | > 10 | > 10 |  |  |
| Cc1cc(C)cc(NC(=O)Nc2ccc(Nc3ncnc4c3OCCN4)cc2)c1 | > 10 | 7.08 | 5.65 | > 10 | > 10 | 0.971 | > 10 | 1.07 | > 10 | > 10 |  |  |
| Cc1cc(NC(=O)Nc2cc(C(C)(C)C)on2)ccc1Nc1ncnc2c1OCCN2 | 4.76 | 1.54 | 0.45 | 0.73 | 2.03 | 0.044 | 5.72 | 0.05 | > 10 | > 10 |  |  |
| O=C(Nc1ccc(Nc2ncnc3c2OCCN3)cc1)Nc1ccc(Cl)c(C(F)(F)F)c1 | 9.94 | 2.29 | 1.99 | 3.07 | > 10 | 0.188 | > 10 | 0.177 | > 10 | > 10 |  |  |
| CN1CCOc2c(Nc3ccc(NC(=O)Nc4cc(C(C)(C)C)on4)cc3)ncnc21 | > 10 | > 10 | 4.86 | 8.06 | > 10 | 0.344 | > 10 | 0.324 | > 10 | > 10 |  |  |
| COc1ccc(NC(=O)Nc2ccc(Nc3ncnc4c3OCCN4)cc2)cc1 | > 10 | > 10 | 6.12 | > 10 | > 10 | 0.824 | > 10 | 0.227 | > 10 | > 10 |  |  |
| CN1CCCOc2c(Nc3ccc(NC(=O)Nc4cc(C(C)(C)C)on4)cc3)ncnc21 | > 10 | 3.58 | 1.6 | 3.89 | > 10 | 0.716 | > 10 | 0.322 | > 10 | > 10 |  |  |
| CC(C)(C)c1cc(NC(=O)Nc2ccc(Nc3ncnc4c3OCCN4)cc2)no1 | 1.62 | 0.11 | 0.08 | 0.15 | 1.36 | 0.034 | 4.41 | 0.01 | > 10 | > 10 |  |  |
| CC(C)(C)c1cc(NC(=O)Nc2ccc(Nc3ncnc4c3OCCN4)nc2)no1 | > 10 | 10 | 2.56 | 4.12 | > 10 | 0.18 | > 10 | 0.077 | > 10 | > 10 |  |  |
| Cc1nc(Nc2ncnc3c2OCCN3)ccc1NC(=O)Nc1cc(C(C)(C)C)on1 | > 10 | 10 | > 10 | > 10 | > 10 | 1.11 | > 10 | 0.781 | > 10 | > 10 |  |  |
| CC(C)(C)c1cc(NC(=O)Nc2ccc(Nc3ncnc4c3OCCN4)c(O)c2)no1 | 8.81 | 1.55 | 0.8 | 3.37 | 1.87 | 0.063 | 6.02 | 0.025 | > 10 | > 10 |  |  |
| COc1cccc(NC(=O)Nc2ccc(Nc3ncnc4c3OCCN4)cc2)c1 | > 10 | > 10 | > 10 | > 10 | > 10 | 5.29 | > 10 | 6.81 | > 10 | > 10 |  |  |
| CNC(=O)c1cc(Oc2ccc(NC(=O)Nc3ccc(Cl)c(C(F)(F)F)c3)cc2)ccn1 [SORAFENIB] | 1.28 | 0.32 | 0.23 | 0.23 | 1.1 |  | 1.8 |  | 6.36 | > 10 | Non-Toxic | Active |
| O=C(Nc1ccc(Br)cc1)Nc1ccc(Nc2ncnc3c2OCCN3)cc1 | > 10 | 8.92 | 10 | > 10 | > 10 | 2.35 | > 10 | 2.22 | 10 | > 10 |  |  |
| Cc1ccc(F)c(NC(=O)Nc2ccc(Nc3ncnc4c3OCCN4)cc2)c1 | > 10 | 10 | 5.82 | > 10 | > 10 | 5.11 | > 10 | 1.47 | > 10 | > 10 |  |  |
| O=C(Nc1ccc(Nc2ncnc3c2OCCN3)cc1)Nc1ccc(C(F)(F)F)cc1 | > 10 | 3.14 | 6.65 | 4.4 | 8.49 | 0.276 | > 10 | 0.306 | 10 | > 10 |  |  |
| COc1cc2/c(=N/c3ccc(Br)cc3F)nc[nH]c2cc1OCC1CCN(C)CC1 [VANDETANIB] | 0.97 | 0.34 | 0.14 | 0.46 | > 10 |  | > 10 |  | 8.41 | 7.15 |  |  |
| COc1cc2nccc(Oc3ccc(NC(=O)C4(C(=O)Nc5ccc(F)cc5)CC4)cc3)c2cc1OC [CABOZANTINIB] | 1.45 | 0.1 | 0.2 | 0.15 | 2.8 |  | 1.53 |  | 9.36 | > 10 | Non-Toxic | Active |
| CC(C)(C)c1cc(NC(=O)Nc2cccc(Nc3ncnc4c3OCCN4)c2)no1 | > 10 | > 10 | > 10 | > 10 | > 10 | 3.45 | > 10 | 0.944 | > 10 | > 10 |  |  |
| O=C(Nc1ccc(Nc2ncnc3c2OCCN3)cc1)Nc1cccc2ccccc12 | > 10 | > 10 | > 10 | > 10 | > 10 | > 10 | > 10 | > 10 | > 10 | > 10 |  |  |
| O=C(Nc1ccc(Nc2ncnc3c2OCCN3)cc1)Nc1cccc(-c2ccccc2)c1 | > 10 | 10 | > 10 | > 10 | > 10 | 7.59 | > 10 | > 10 | > 10 | > 10 |  |  |
| CC(C)(C)c1cc(NC(=O)Nc2ccc(Nc3ncnc4c3OCCN4)c(F)c2)no1 | 2.94 | 0.39 | 0.3 | 0.33 | 1.53 | 0.022 | 3.49 | 0.021 | 10 | > 10 |  |  |
| CC(C)(C)c1csc(NC(=O)Nc2ccc(Nc3ncnc4c3OCCN4)cc2)n1 | > 10 | > 10 | > 10 | > 10 | > 10 | 5.17 | > 10 | 3.15 | > 10 | > 10 |  |  |
| CC(C)(C)c1cc(NC(=O)Nc2ccc(Nc3ncnc4c3OCCN4)cc2F)no1 | 0.59 | 0.13 | 0.08 | 0.09 | 4.72 | 0.057 | 5.23 | 0.01 | > 10 | > 10 |  |  |
| O=C(Nc1ccc(Nc2ncnc3c2OCCN3)cc1)Nc1cc(Cl)cc(Cl)c1 | > 10 | 8.05 | > 10 | > 10 | > 10 | 1.3 | > 10 | 0.865 | 10 | > 10 |  |  |
